Earlier results, collected in patent publication US20070053968A1 (Wyeth, priority 2005, published 2007).

Assays:
dopamine re-uptake = dopamine re-uptake (Homo sapiens, UniProt Q01959)
[1] = versus venlafaxine
[2] = molecular target: H1-histaminergic receptors (Homo sapiens, UniProt P35367)
[3] = oral administration, versus venlafaxine, ODV or other salts of ODV
[4] = compared with ODV free base
[5] = compared with ODV free base; remark: listed apart in the source
[6] = molecular target: neuronal norepinephrine re-uptake (Homo sapiens, UniProt P23975)
Sequence of neuronal norepinephrine re-uptake (P23975 whole entry): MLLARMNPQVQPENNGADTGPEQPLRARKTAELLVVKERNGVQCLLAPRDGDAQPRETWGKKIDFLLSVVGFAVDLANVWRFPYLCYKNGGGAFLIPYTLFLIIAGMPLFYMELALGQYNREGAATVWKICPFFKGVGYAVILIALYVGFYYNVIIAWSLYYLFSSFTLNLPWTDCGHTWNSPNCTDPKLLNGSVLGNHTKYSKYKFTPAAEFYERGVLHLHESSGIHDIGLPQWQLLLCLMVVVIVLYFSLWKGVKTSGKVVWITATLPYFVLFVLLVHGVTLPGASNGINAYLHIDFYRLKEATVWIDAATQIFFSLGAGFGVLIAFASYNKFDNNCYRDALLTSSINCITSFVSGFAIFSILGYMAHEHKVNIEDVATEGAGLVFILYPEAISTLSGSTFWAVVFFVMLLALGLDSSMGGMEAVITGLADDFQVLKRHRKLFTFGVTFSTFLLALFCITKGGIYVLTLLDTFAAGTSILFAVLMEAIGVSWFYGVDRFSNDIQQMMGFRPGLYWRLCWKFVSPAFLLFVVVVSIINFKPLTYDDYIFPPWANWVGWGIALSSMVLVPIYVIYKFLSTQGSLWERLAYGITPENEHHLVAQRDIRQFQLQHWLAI

Sequence of dopamine re-uptake (Q01959 whole entry): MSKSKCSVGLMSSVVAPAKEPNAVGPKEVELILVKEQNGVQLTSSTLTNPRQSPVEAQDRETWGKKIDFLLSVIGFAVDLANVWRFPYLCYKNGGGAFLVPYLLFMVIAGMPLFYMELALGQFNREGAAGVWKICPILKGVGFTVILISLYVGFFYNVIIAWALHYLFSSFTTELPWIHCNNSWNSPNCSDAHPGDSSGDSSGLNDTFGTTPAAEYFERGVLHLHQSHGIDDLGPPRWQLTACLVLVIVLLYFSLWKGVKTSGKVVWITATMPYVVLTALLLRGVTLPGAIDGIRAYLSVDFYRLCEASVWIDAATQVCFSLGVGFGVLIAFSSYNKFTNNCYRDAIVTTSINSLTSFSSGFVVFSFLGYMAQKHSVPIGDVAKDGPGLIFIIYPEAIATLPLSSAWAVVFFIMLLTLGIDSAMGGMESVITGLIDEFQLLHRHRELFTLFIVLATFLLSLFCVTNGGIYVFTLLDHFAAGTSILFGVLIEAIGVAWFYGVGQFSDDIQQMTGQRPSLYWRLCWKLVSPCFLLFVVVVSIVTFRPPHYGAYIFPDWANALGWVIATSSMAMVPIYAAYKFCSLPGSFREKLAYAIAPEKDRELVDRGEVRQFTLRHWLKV
Sequence of H1-histaminergic receptors (P35367 whole entry): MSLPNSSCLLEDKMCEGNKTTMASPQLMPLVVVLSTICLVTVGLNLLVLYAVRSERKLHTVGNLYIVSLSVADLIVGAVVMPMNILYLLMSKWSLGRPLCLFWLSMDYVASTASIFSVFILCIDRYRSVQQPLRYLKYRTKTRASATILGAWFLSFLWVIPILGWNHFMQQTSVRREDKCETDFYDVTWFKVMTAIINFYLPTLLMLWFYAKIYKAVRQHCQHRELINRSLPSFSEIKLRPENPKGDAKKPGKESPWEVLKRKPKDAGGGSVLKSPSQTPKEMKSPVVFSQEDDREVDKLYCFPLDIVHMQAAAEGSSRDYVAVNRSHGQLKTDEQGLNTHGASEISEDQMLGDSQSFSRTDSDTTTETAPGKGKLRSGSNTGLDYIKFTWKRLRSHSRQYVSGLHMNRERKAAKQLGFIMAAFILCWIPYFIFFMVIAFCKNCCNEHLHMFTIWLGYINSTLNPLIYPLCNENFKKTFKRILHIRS

Compound | affinity for muscarinic receptors (muscarinic receptors) | affinity for α1-adrenergic receptors (α1-adrenergic receptors) | inhibition of dopamine re-uptake (dopamine re-uptake) | solubility compared with venlafaxine [1] | affinity for H1-histaminergic receptors [2] | incidence of nausea, vomiting, diarrhea, abdominal pain, headache, vaso-vagal malaise, and/or trismus [3] | bioavailability [4] | permeability [5] | inhibition of neuronal norepinephrine re-uptake [6]
CN(C)CC(c1ccc(O)cc1)C1(O)CCCCC1 (centres unmarked) [ODV] | no significant affinity | no significant affinity | weak inhibitors | more soluble | no significant affinity |  |  |  | 
CN(C)CC(c1ccc(O)cc1)C1(O)CCCCC1.O=C(O)CCC(=O)O (centres unmarked) [ODV succinate] |  |  |  |  |  | lower incidence | improved | improved | 
COc1ccc(C(CN(C)C)C2(O)CCCCC2)cc1 (racemic) [venlafaxine, (±)-1-[2-(dimethylamino)-1-(4-methoxyphenyl)ethyl]-cyclohexanol] |  | no significant affinity | weak inhibitors |  |  |  |  |  | potent inhibitors
